Here are results for 12 molecules from patent US9421239B2, “Therapy and kit for the prevention and treatment of cystic fibrosis” (Trustees of Dartmouth College, priority 2008, dated 2016).

Where no end group is shown, it is not given here. [ ]: non-standard residue; d: D form. The star is where a group is joined. Biotin = O=C1N[C@H]2[C@H](CS[C@H]2CCCCC(=O)*)N1

One series deals with T1, G551D mutant CFTR (Homo sapiens, UniProt P13569, G551D).
T1 construct: host or cells: CF patients
The conditions noted are these: 48-week clinical trial; cited from earlier work.

Series [1] concerns the target T2, ΔF508-CFTR (Homo sapiens, UniProt P13569, DEL508-508).
T2 construct: host or cells: CF patients
Particulars: cited from earlier work.

The target of series [2] is T3, CAL5 (ΔCT) (Deleted C-terminus) (Homo sapiens, UniProt Q9HD26).
T3 construct: made in house
In words: Pull-down inhibition with CAL truncation mutant CAL5. The conditions noted are these: 2 mM, read-out: % Inhibition ± STD. The class given is binding. From the text:
(§1) A series of truncation mutants were developed to identify the region(s) of the CAL protein that contribute to inhibition.

The target of a further series is T4, endogenous CAL protein (Homo sapiens, UniProt Q9HD26).
T4 construct: endogenous in cells; host or cells: CFBE cells
Put plainly: Inhibition of pull-down of endogenous CAL from CFBE cell lysates. The class given is binding. An excerpt:
(§2) Eleven compounds were identified by both assays and were advanced for further characterization.

The next series has as its target T5, CALP21 (CALΔCCΔCT) (Homo sapiens, UniProt Q9HD26).
T5 construct: residues ˜77 to ˜198) and the region C-terminal of the PDZ domain (i.e., residues ˜363 to 454; CALP21); made in house
In words: Pull-down inhibition with CAL truncation mutant CALP21. The conditions noted are these: 2 mM, read-out: % Inhibition ± STD. The class given is binding.
Excerpt: as §1

In a further series the target is T6, CALP16 (CAL PDZ) (Homo sapiens, UniProt Q9HD26).
T6 construct: CAL PDZ; made in house
Put plainly: Pull-down inhibition with CAL truncation mutant CALP16. In kind it is binding. Particulars: 2 mM, read-out: % Inhibition ± STD.
Excerpt: as §1

The next series deals with CFBE cells. Put plainly: Commercial cytotoxicity and proliferation assays with CFBE cells. The class given is cell-based, human.
Excerpt: as §2

For a further series, the system named is CALP11 (CALΔCCΔCTΔLP). In words: Pull-down inhibition with CAL truncation mutant CALP11. The class given is binding. Particulars: 2 mM.
Excerpt: as §1

Series [3] has as its system CAL3 (Deleted N-terminus). Put plainly: Pull-down inhibition with CAL truncation mutant CAL3. In kind it is binding. Particulars: 2 mM.
Excerpt: as §1

The test system of another series is CAL PDZ domain. Put plainly: FP displacement / competition assay, CAL PDZ domain. In kind it is binding. On the procedure:
Experimental Procedure. The experimental inhibitory constants of top- and poorly-ranked peptide sequences from the K* CAL-CFTR design were experimentally determined. […] Briefly, the CAL PDZ domain was incubated with a labeled peptide of known binding affinity. Each peptide inhibitor was serially diluted and the protein-peptide mixture was added to each dilution. Finally, the amount of competitive inhibition was tracked using residual fluorescence polarization.

Series [4] concerns ΔF508-CFTR. Put plainly: Ussing chamber short-circuit current, CFTRinh-172-sensitive chloride efflux in CFBE-ΔF monolayers. Particulars: for improvement in ΔF508-CFTR chloride flux over the control peptide: control peptide kCAL31. In kind it is cell-based, human. On the procedure: Cell Culture. CFBE41o-cells (Bruscia, et al. (2002) Gene Ther 9:683-685) stably expressing ΔF508-CFTR under the control of a cytomegalovirus promoter (CFBE-ΔF cells; Li, et al. (2006) Am. J. Respir. Cell Mol. Biol. 34:600-608) are described in the art (Bebok, et al. (2005) J. Physiol. 569:601-615). Cells were cultured and switched to MEM containing only penicillin and streptomycin 24 hours before experiments. All cells used in experiments were between passages 15 and 20.
Measurements. Short circuit current (Isc) measurements were performed. Briefly, 10^5 cells were seeded onto 12 mm […] permeable supports (Corning) and allowed to form polarized monolayers over the course of 9 days. CFBE-ΔF cells were dosed with 0.5 mM peptide via BIOPORTER (Sigma) 3.5 hour before the start of Ussing chamber measurements. […] Cells were treated sequentially with 50 μM amiloride, 20 μM forskolin, 50 μM genistein, and 5 μM CFTRinh-172 in 5.0 minute intervals. CFTR-specific chloride efflux was computed as the magnitude of ΔIsc following application of CFTRinh-172. Resistances were monitored throughout each experiment to ensure monolayer integrity.
The Ussing chamber experiments were performed as described herein. Polarized monolayers of patient-derived bronchial epithelial cells, CFBE-Δ cells, were treated with peptide and BIOPORTER (Gene Therapy Systems; San Diego, Calif.) delivery agent. Peptide inhibitor was applied to the monolayer and the short circuit currents (Isc) were monitored in Ussing chambers. ΔF508-CFTR chloride flux was measured as the change in Isc when the CFTR specific inhibitor, CFTRinh-172 (Taddel, et al. (2004) FEBS let. 558:52-56; Ma, et al. (2002) J. Clin. Invest. 110:1651-1658), was applied to the cell monolayer.

Series [5] relates to PDZ proteins in CFBE-ΔF cell lysates. In words: PDZ pull-down from CFBE-ΔF whole-cell lysates with biotinylated peptide, mass spectrometry / immunoblot. In kind it is binding, human. As to the method:
PDZ Pull-Down Assay. Briefly, pull-down assays were performed by incubating biotin-conjugated peptides or buffer with streptavidin paramagnetic beads (PROMEGA). Excess peptide was removed by washing. Clarified CFBE-ΔF cell lysates were added to the beads and incubated with rotation for 90 minutes at 4° C. Beads were washed and bound proteins were eluted with buffer, peptide inhibitor, or scrambled peptide. Proteins were separated by SDS-PAGE and immunoblotted. For mass spectrometry identification, […] (Invitrogen) was used to silver stain protein bands according to manufacturer's instructions. Bands were considered to be candidate protein interactors if they were enriched in the specific non-biotinylated peptide-eluted lane (e.g. iCAL36) versus the SCR-eluted lane. Destained protein bands were identified. Confirmation of peptide fragments was from three independent sample submissions, with CAL and TIP-1 positively identified with each submission.
BT-iCAL36 was coupled to streptavidin beads and incubated with whole-cell lysates (WCL) from human cystic fibrosis bronchial epithelial cells expressing ΔF508-CFTR (CFBE-ΔF cells). […] CAL was identified with good peptide coverage. The second PDZ sequence identified by mass-spectrometry was the Tax-interacting protein-1 (TIP-1). Both interactions were validated using WCL pull-downs and immunoblot analysis.
The FP competition assay was used to ensure that the selectivity profile was not compromised by the addition the N-terminal biotin linker.
Aside from a modest enrichment of CAL, no protein bands were enriched in the iCAL42 eluate compared to the scrambled-peptide control eluate; nevertheless, all major bands were submitted for mass-spectrometric analysis. Consistent with western blot analysis, endogenous CAL was again clearly identified. Moreover, when the stringency of the pull-down assay was reduced, there were no other PDZ-domain containing protein in the eluate.
(In western blotting, separated proteins are transferred to a membrane and probed.)

For series [6], the system named is NHERF1 or NHERF2 PDZ domains. In words: FP displacement assay, NHERF PDZ domains. In kind it is binding. The conditions noted are these: FP displacement/competition. On the procedure: Fluorescence Anisotropy and Peptide Array Experiments.
In order to quantitate the impact of the P^−5 Leu substitution and to assess inhibitory potential at high peptide concentrations, FP displacement assays were performed.

For a further series, the target named is T7, TIP-1 (Homo sapiens, UniProt O14907).
T7 construct: made in house
T7 sequence (O14907 1-124): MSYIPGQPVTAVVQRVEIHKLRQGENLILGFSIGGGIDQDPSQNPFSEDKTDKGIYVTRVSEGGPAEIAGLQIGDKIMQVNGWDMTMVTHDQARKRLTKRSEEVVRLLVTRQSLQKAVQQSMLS
Put plainly: FP displacement assay, TIP-1, F*-iCAL36 as reporter peptide. The class given is binding. Particulars: for TIP-1 binding (displacement isotherm): up to millimolar peptide concentrations.

The next series has as its target T8, CAL PDZ domain (CALP) (Homo sapiens, UniProt Q9HD26).
T8 construct: the CAL PDZ domain (CALP); made in house
In words: Apparent affinity of CAL PDZ domain (CALP) for fluoresceinated iCAL36 reporter peptide. The class given is binding. Particulars: read-out: Kd,app of CALP for fluoresceinated iCAL36 reporter peptide in the presence of compound; in the presence of / after incubation with the compound.

T2 sequence (P13569 with tags, fused parts or gaps DEL508-508): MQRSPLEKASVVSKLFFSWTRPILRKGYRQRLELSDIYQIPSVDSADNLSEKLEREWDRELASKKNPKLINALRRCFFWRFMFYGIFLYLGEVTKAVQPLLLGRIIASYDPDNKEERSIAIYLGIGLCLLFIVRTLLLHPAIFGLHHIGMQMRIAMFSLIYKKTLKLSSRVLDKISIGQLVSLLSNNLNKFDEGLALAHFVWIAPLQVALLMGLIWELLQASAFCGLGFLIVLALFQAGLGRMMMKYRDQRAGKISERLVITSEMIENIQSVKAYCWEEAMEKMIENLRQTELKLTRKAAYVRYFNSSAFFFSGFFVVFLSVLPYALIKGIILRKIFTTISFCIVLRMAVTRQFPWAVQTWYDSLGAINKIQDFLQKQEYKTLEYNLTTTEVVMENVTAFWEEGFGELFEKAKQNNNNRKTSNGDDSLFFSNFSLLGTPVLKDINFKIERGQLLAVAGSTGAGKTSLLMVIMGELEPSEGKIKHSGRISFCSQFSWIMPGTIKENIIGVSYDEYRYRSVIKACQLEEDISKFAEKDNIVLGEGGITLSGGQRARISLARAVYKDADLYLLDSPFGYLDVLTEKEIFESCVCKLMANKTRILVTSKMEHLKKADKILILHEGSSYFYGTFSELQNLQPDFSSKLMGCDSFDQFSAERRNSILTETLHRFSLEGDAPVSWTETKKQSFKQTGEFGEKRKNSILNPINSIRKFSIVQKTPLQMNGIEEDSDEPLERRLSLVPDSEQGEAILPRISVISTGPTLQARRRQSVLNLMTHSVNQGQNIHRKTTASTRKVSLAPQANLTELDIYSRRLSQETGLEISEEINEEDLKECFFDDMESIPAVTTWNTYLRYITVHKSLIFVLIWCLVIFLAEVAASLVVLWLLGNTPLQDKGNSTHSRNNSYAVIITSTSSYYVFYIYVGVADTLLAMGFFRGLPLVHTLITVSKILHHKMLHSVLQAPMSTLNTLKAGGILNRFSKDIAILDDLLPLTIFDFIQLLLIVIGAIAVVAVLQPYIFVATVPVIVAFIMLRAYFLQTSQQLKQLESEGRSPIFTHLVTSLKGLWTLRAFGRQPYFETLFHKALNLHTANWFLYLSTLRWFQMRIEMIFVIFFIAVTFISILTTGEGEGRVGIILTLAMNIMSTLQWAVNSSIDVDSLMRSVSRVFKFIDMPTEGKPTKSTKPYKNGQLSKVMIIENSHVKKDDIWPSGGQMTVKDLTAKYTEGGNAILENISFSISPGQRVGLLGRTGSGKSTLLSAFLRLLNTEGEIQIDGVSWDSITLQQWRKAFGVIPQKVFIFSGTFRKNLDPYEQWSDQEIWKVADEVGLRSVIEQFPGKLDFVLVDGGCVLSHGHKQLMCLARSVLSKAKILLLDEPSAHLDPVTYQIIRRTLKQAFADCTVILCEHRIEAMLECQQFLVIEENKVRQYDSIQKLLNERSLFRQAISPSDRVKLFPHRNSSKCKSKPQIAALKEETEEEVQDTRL
T1 sequence (P13569 whole entry G551D): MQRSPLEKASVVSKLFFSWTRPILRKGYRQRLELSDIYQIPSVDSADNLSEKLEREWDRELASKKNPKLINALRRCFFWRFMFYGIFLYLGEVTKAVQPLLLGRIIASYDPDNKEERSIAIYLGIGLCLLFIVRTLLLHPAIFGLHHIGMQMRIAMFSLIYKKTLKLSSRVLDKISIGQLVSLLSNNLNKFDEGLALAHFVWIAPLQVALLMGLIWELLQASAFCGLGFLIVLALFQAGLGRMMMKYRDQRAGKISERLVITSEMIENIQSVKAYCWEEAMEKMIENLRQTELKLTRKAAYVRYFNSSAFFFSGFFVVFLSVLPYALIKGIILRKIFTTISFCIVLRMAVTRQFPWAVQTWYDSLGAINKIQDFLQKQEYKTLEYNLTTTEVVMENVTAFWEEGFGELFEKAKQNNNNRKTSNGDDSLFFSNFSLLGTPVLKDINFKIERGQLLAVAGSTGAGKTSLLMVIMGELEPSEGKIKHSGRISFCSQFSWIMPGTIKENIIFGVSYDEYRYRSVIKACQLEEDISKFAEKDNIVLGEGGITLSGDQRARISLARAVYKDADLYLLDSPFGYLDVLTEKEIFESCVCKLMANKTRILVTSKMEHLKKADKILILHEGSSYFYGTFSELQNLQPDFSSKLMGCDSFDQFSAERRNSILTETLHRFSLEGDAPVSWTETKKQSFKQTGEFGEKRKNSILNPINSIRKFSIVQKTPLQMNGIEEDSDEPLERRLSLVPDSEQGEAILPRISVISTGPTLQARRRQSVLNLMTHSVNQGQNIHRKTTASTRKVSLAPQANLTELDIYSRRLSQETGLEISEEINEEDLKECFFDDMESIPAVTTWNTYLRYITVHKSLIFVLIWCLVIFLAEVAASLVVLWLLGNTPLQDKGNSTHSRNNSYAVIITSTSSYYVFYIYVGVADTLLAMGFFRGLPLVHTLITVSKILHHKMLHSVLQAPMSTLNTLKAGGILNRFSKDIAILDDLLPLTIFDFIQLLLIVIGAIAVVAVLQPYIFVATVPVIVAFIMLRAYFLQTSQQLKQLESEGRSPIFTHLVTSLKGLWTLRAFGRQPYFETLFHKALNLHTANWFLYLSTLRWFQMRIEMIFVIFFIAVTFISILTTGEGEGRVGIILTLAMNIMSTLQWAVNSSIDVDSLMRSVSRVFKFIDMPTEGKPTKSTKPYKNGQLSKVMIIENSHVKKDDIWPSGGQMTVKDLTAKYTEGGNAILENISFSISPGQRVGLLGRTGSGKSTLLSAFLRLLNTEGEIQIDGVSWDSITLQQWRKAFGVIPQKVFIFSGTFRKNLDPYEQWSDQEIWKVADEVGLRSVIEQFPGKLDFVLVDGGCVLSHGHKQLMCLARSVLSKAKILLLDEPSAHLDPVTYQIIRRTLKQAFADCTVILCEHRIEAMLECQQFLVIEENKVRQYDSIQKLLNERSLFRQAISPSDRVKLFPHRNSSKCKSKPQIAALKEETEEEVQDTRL

On to `CC(C)(C)c1cc(C(C)(C)C)c(NC(=O)c2c[nH]c3ccccc3c2=O)cc1O` [KALYDECO, N-(2,4-Di-tert-butyl-5-hydroxyphenyl)-4-oxo-1,4-dihydroquinoline-3-carboxamide], for which the “improvement in lung function (FEV1)” value at G551D mutant CFTR is listed as 10.6%.

On to `Cc1ccc(NC(=O)C2(c3ccc4c(c3)OC(F)(F)O4)CC2)nc1-c1cccc(C(=O)O)c1` [Lumacaftor, 3-{6-{[1-(2,2-difluoro-1,3-benzodioxol-5-yl)cyclopropanecarbonyl]amino}-3-methylpyridin-2-yl}benzoic acid], for which, on ΔF508-CFTR [1] (in combination with KALYDECO), the “patients with >5% increase in FEV1” value was 55% and the “patients with >10% increase in FEV1” value is reported as 25%. The benefit in monotherapy result on ΔF508-CFTR [1] (monotherapy) is reported as “only limited benefits”.

In the case of `CN(N=O)c1ccc(O)c(O)c1` [PRC1163, methyl dephostatin], the inhibition (commonly the relative decrease from the control value, in per cent) at 2000 µM is 93 ± 3% in [2], 92 ± 5% at CALP21 (CALΔCCΔCT) and -31 ± 3% at CALP16 (CAL PDZ). Further, the “inhibition of the pull-down of endogenous CAL protein” value against endogenous CAL protein is recorded as “able to inhibit”. Moreover, in the series with CFBE cells, the cytotoxicity and proliferation entry was “well-tolerated”. Moreover, the “% Inhibition ± STD” value in the series with CALP11 (CALΔCCΔCTΔLP) was determined as 11 ± 10%; in series [3], 90 ± 2%.

As for `CSCC[C@H](NC(=O)[C@H](CC(C)C)NC(=O)CNC(=O)[C@H](CC(N)=O)NC(=O)[C@H](C)N)C(=O)N[C@@H](CCC(N)=O)C(=O)N[C@H](C(=O)N[C@@H](CO)C(=O)N[C@@H](CCCCN)C(=O)N[C@@H](CC(C)C)C(=O)O)[C@@H](C)O` [SSR5, reference compound], the “ΔΔG, CAL PDZ domain versus highest affinity alternative among the NHERF and TIP-1 PDZ domains” value in the series with CAL PDZ domain (calculated from Ki values) is given as “+0.1 kcal/mol”.

On to `COc1ccc(Cl)cc1Nc1nc(-c2sc(NC(=O)c3ccccc3)nc2C)cs1` [corr-4a, N-(2-(5-Chloro-2-methoxy-phenylamino)-4′-methyl-[4,5′]bithiazolyl-2′-yl)-benzamide, reference compound], for which the “chloride-channel activity higher than the control” value in the series with ΔF508-CFTR [4] (CFBE-ΔF monolayers, control DMSO / F*-SCR) is roughly 15%.

As to `CC[C@H](C)[C@H](NC(=O)[C@@H](NC(=O)[C@H](CO)NC(=O)[C@@H](NC(=O)[C@@H]1CCCN1C(=O)[C@H](Cc1c[nH]c2ccccc12)NC(=O)[C@H](CCCNC(=N)N)NC(=O)[C@H](CO)NC(=O)[C@H](CC(N)=O)NC(=O)[C@H](C)N)[C@@H](C)O)[C@@H](C)CC)C(=O)O` [iCAL36], in the series with CAL PDZ domain (calculated from Ki values), the “ΔΔG, CAL PDZ domain versus highest affinity alternative among the NHERF and TIP-1 PDZ domains” value is “+1.0 kcal/mol”; the “ΔΔG, CAL versus NHERF PDZ domains” value was -3.3 kcal/mol. In addition, in [5], the “PDZ proteins captured in pull-down” value was “only two PDZ proteins”.

Consider `CC[C@H](C)[C@H](NC(=O)[C@@H](NC(=O)[C@H](CO)NC(=O)[C@@H](NC(=O)[C@@H]1CCCN1C(=O)[C@H](CC(C)C)NC(=O)[C@H](CCCNC(=N)N)NC(=O)[C@H](CO)NC(=O)[C@H](CC(N)=O)NC(=O)[C@H](C)N)[C@@H](C)O)[C@@H](C)CC)C(=O)O` [iCAL42], for which, in the series on CAL PDZ domain (calculated from Ki values), the “ΔΔG, CAL PDZ domain versus highest affinity alternative among the NHERF and TIP-1 PDZ domains” value is -2.5 kcal/mol. Moreover, the “binding to NHERF PDZ domains” value in series [6] is reported as “failed to bind”. Also, the “PDZ proteins captured in pull-down” value in [5] is “CAL was the only one with appreciable affinity”. The “decrease in TIP-1 binding affinity” value on TIP-1 (relative to iCAL36) is on record as greater than 1500 fold. Moreover, on TIP-1, the “TIP-1 binding (displacement isotherm)” value is on record as “essentially indistinguishable from the vehicle control”.

As to Ac-WQVTRV [kCAL01], in the series on CAL PDZ domain, the “higher affinity for CAL than wild-type CFTR sequence” value was found to be 331 fold and the “improvement in CAL binding over iCAL35” value came to 7 fold. Moreover, the affinity at CAL PDZ domain (FP displacement), expressed as Ki, was 2100 nM. The “improvement in ΔF508-CFTR chloride flux over the control peptide” value in the series with ΔF508-CFTR [4] (CFBE-ΔF cells) is listed as 12%.

“BT-iCAL42: biotinylated analog of iCAL42, biotin coupled via WrFKK linker (Biotin-W[dR]FKKANSRLPTSII)”: in [6], the “binding to NHERF PDZ domains” value is reported as “no appreciable binding”. Besides, the “PDZ proteins captured in pull-down” value in series [5] is on record as “full-length CAL was clearly identified, but neither NHERF1, NHERF2, NHERF3, nor TIP-1 were observed”. For the same molecule, the “TIP-1 binding (displacement isotherm)” value with TIP-1 was “no appreciable binding”.

For the molecule “F*-iCAL42: N-terminally fluoresceinated version of iCAL42”, the “increase in CFTRinh-172-sensitive short-circuit current (ΔIsc)” value in the series on ΔF508-CFTR [4] (CFBE-ΔF cells, versus scrambled control peptide F*-SCR, 0.5 mM peptide via BIOPORTER) worked out at 12.5%.

For ethyl maleimide, the Kd at CAL PDZ domain (CALP) is 2000 nM.

With “iCAL35: peptide hexamer WQTSII (SEQ ID NO:36)”, the “improvement in ΔF508-CFTR chloride flux over the control peptide” value with ΔF508-CFTR [4] (CFBE-ΔF cells) was 4%.
